In paper PMC2906706 (Cancer research, 2010):

What was measured:
[1] = molecular target: OCT2 (Homo sapiens, UniProt O15244); assay: inhibition of ASP+ uptake in HEK293 cells over-expressing OCT2; format: cell-based
[2] = molecular target: T1, OCT1 (Homo sapiens, UniProt O15245); assay: inhibition of ASP+ uptake in HEK293 cells over-expressing OCT1; format: cell-based
T1 sequence (O15245 1-554): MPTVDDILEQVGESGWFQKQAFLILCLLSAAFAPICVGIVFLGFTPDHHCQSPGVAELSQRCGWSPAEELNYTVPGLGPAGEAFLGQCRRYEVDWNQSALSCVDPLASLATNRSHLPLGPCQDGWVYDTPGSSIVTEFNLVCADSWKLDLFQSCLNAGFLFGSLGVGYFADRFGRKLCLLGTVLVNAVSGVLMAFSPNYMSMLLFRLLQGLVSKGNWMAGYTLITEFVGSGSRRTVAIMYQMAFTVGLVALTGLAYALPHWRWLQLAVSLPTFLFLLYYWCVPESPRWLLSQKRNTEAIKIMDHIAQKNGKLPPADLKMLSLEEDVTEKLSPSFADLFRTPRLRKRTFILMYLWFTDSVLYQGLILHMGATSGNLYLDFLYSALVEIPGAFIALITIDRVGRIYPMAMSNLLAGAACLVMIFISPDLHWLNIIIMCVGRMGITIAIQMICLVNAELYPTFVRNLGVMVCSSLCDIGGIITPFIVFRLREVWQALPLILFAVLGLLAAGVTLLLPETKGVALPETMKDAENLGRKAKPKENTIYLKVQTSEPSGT

OCT2, sequence (O15244 whole entry): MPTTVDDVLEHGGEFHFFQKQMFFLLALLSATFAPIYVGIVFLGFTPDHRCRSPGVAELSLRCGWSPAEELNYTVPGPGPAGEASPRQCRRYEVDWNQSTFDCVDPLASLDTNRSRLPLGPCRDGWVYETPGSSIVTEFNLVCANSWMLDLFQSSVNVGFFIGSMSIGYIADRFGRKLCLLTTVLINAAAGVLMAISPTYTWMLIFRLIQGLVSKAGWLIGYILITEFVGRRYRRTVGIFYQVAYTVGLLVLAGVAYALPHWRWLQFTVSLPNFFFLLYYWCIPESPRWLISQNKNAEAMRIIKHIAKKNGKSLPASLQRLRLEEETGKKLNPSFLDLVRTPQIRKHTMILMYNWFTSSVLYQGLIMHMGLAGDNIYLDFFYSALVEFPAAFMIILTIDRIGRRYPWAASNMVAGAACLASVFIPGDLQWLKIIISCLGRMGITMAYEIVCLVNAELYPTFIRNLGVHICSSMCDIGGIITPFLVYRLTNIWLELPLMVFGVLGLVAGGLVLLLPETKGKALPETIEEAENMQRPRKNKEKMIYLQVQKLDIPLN

SMILES: CN1CCN(CCOc2cc(OC3CCOCC3)c3c(Nc4c(Cl)ccc5c4OCO5)ncnc3c2)CC1 [saracatinib, N-(5-chloro-1,3-benzodioxol-4-yl)-7-[2-(4-methylpiperazin-1-yl)ethoxy]-5-(tetrahydro-2H-pyran-4-yloxy)quinazolin-4-amine]
- IC50 [1]: 0.46 µM
- IC50 [2]: 27.1 µM
